Reference: patent US12673975B2, “Cyclic peptide, cell scaffold material, cell separating material, and medium” (FUJIFILM Corporation, priority 2019, dated 2026)
Where two headings read alike, the source gives them in different places. Starred links: 1 amine or outer side, 2 acyl side, 3 side chain; linkers in the order of their positions; H or OH if unused. Positions of bridges follow the written chain, without caps; N, C: chain ends. Non-standard residues stand in square brackets, D forms with d. Residues, ends and D or L forms follow the SMILES beside them. hCys = N[C@@H](CCS)C(=O)O; Orn = NCCC[C@H](N)C(=O)O; Dab = NCC[C@H](N)C(=O)O; Dap = NC[C@H](N)C(=O)O; X1 = O=C(C[*:2])[*:1]; X2 = O=C(C[*:1])[*:2]

How the values were obtained:
[1] = target: human integrin αvβ5 (Homo sapiens, UniProt P06756+P18084); assay: Evaluation of integrin binding property (surface plasmon resonance, Biacore 3000, immobilized cyclic peptide)
Description: A commercially available CMS (a carboxymethyl dextran introduction type, manufactured by GE Healthcare) sensor chip was set in Biacore 3000, which is a surface plasmon resonance apparatus manufactured by GE Healthcare, the sensor was stabilized at a flow rate of 10 μL/min of a HEPES (4-(2-hydroxyethyl)-1-piperazineethanesulfonic acid) buffer solution (20 mM HEPES-HCl, 150 mM NaCl, pH 7.4) for surface plasmon resonance (SPR), and 70 μL of a mixed aqueous solution of 0.2 M 1-(3-dimethylaminopropyl)-3-ethylcarbodiimide (EDC) and 0.04 M N-hydroxysuccinimide (NHS) was added thereto. Here, the concentration unit M represents mol/L, and the same applies hereinafter. Then, 20 μL of the sample solution of each of the above cyclic peptides diluted to 0.2 g/L with the HEPES buffer solution was supplied to the sensor chip, blocking treatment was subsequently carried out with an ethanolamine solution, and washing was carried out with a sodium hydroxide aqueous solution, whereby immobilization was carried out. However, only for the cyclic peptides 125, 126, and 127, in which the number of lysine residues having an amino group as the immobilizing functional group was zero, the amount of the sample solution to be supplied to the sensor chip was set to 500 μL instead of 20 μL. Further, 70 μL of the mixed aqueous solution of 0.2 M EDC and 0.04 M NHS was added to another flow channel of the same sensor chip without immobilizing the sample, and then blocking treatment and washing treatment were carried out. Hereinafter, the obtained immobilization-treated sensor chip is referred to as an “immobilization-treated sensor chip A”.
After adding human integrin αvβ5 for 10 minutes at 25° C., which was diluted to 30 nM using a HEPES buffer solution to which magnesium chloride was added to 5 mM, in each flow channel of the immobilization-treated sensor chip A prepared in (1) above, the same HEPES buffer solution (containing 5 mM magnesium chloride) was allowed to flow as a running buffer for 30 minutes, and measurement was carried out with Biacore 3000. Then, a regeneration treatment of removing human integrin αvβ5 was carried out by allowing a 0.5 M EDTA aqueous solution to flow through each flow channel for 10 minutes. Further, the above-described measurement process consisting of adding integrin for 10 minutes, allowing a running buffer to flow for 30 minutes, carrying out measurement with Biacore 3000, and carrying out regeneration treatment with 0.5 M EDTA aqueous solution was carried out in the same manner for 100 nM human integrin αvβ5, 300 nM human integrin αvβ5, and 1,000 nM human integrin αvβ5. Dissociation constant between the cyclic peptide and human integrin αvβ5 was calculated from the difference between the value measured by Biacore 3000 in the flow channel immobilized with the cyclic peptide and the value measured by Biacore 3000 in the flow channel unimmobilized with the cyclic peptide, in a case where each concentration of human integrin αvβ5 was allowed to flow, and the integrin binding property was evaluated according to the following evaluation standards. It is preferable that the evaluation result satisfies the evaluation standard A, B, or C.

[2] = Evaluation of molecule stability (alkali treatment, residual rate by LC/MS); assay type: physicochemical; conditions: for Performance evaluation: Stability (residual rate of cyclic peptide after alkali treatment): 500 μM peptide aqueous solution plus equivalent of 1 M sodium hydroxide, 15° C., 3 hours, LC/MS peak area; for Stability (molecule stability, residual rate of the cyclic peptide rank): alkali treatment, residual rate by LC/MS
Description: The molecule stability of the cyclic peptide was evaluated by analyzing the alkali-treated cyclic peptide aqueous solution by liquid chromatography mass spectroscopy (LC/MS).
The alkali treatment was carried out by the following method. A 500 μM cyclic peptide aqueous solution was prepared, an equivalent of 1 M sodium hydroxide aqueous solution was added to this aqueous solution, and the resultant mixture was incubated at 15° C. for 3 hours to obtain an alkali-treated cyclic peptide aqueous solution. The cyclic peptide residual rate was calculated by setting the total area of all peaks of the cyclic peptide before alkali treatment in LC/MS to 100% and determining the proportion of the total area of all peaks in LC/MS of the alkali-treated cyclic peptide aqueous solution, and the molecule stability was evaluated according to the following evaluation standards. It is preferable that the evaluation result satisfies the evaluation standard A, B, or C.
The conditions of the LC/MS used for the evaluation of molecule stability were set as follows. • LC apparatus: Prominence series (pump, column oven, autosampler, detector) (manufactured by Shimadzu Corporation) • MS detector: LC/MS2010EV (manufactured by Shimadzu Corporation) • Column: Cadenza CD-C18, inner diameter 2.0 mm×length 250 mm, particle size: 3 μm (manufactured by Imtakt Corporation) • Eluent A: a solution (pH 3) containing 10 mM ammonium formate as a solute, where the solvent is 100% water. • Eluent B: a solution (pH 3) containing 10 mM ammonium formate as a solute, where the solvent is acetonitrile/water=90/10. • Flow rate: 0.2 mL/min • Injection volume: 4 μL • Gradient: 0% to 30%: Eluent B (0 to 30 minutes), 100%: Eluent B (30 to 40 minutes), 0%: Eluent B (40 to 60 minutes) • Column temperature: 45° C. • Ionization method: electrospray ionization (ESI) positive, ESI negative

[3] = SPR, 25° C., HEPES buffer with 5 mM magnesium chloride, integrin 30-1,000 nM, read-out: Performance evaluation: Binding activity (dissociation constant between the cyclic peptide and human integrin αvβ5)
[4] = surface plasmon resonance, immobilized cyclic peptide, human integrin αvβ5, read-out: Binding activity (integrin binding property, dissociation constant rank)

Chain of human integrin αvβ5 (P06756 31-1048): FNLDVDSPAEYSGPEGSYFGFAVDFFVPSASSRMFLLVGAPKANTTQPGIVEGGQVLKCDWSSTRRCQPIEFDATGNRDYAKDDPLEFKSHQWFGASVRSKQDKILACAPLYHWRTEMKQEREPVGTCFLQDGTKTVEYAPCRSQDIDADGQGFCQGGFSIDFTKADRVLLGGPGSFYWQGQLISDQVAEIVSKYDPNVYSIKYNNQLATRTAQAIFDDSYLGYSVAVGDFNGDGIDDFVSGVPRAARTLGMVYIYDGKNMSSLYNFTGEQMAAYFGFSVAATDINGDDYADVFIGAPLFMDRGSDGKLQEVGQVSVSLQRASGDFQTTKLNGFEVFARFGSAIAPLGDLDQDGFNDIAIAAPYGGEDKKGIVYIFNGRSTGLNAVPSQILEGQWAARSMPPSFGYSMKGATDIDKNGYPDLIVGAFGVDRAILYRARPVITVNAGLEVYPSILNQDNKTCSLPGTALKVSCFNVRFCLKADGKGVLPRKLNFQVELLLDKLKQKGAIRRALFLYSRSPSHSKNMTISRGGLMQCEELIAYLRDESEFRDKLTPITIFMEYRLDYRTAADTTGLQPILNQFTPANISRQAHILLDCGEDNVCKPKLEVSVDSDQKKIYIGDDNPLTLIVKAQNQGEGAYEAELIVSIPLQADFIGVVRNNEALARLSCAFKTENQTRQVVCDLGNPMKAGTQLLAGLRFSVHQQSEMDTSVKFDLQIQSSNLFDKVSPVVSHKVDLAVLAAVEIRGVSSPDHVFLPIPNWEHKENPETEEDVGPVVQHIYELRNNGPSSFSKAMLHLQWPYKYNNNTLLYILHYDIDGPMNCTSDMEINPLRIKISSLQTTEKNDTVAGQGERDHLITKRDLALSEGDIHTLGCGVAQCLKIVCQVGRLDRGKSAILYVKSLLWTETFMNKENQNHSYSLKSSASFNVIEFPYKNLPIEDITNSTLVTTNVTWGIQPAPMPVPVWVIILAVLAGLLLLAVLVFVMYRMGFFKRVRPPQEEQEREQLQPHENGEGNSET
Chain of human integrin αvβ5 (P18084 24-799): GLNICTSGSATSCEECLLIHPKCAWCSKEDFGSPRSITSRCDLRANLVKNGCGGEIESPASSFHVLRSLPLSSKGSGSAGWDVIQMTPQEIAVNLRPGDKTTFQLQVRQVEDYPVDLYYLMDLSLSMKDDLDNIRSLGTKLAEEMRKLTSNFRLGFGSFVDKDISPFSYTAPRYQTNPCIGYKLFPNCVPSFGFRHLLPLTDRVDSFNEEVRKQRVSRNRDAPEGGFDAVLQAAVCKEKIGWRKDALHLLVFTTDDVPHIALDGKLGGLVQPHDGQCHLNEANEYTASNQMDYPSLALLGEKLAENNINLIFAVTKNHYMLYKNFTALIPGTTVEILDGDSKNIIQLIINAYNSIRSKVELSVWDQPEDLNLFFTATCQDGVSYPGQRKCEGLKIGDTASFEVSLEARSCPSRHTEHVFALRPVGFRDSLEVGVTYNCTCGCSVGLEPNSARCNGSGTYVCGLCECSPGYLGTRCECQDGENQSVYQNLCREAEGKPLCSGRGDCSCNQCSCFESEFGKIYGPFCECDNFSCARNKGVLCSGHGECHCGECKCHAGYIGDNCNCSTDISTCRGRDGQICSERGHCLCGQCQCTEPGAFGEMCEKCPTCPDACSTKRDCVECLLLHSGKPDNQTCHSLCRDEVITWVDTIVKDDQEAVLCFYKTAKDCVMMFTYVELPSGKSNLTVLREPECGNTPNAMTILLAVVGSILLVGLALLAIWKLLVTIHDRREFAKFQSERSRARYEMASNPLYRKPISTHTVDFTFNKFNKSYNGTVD

SMILES | Kd [1, 3] [nM] | Kd [1, 4] [nM] | Performance evaluation: Stability (residual rate of cyclic peptide after alkali treatment) [2] | Stability (molecule stability, residual rate of the cyclic peptide rank) [2] | Kd [1] [nM]
CC(C)[C@@H]1NC(=O)[C@@H](NC(=O)CNC(=O)[C@H](CCCCN)NC(=O)[C@H](CCCCN)NC(=O)[C@@H](N)CCCCN)CCSCC(=O)NCC[C@@H](C(=O)N[C@@H](C)C(=O)O)NC(=O)[C@H](C)NC(=O)[C@H](Cc2ccccc2)NC(=O)[C@H]([C@@H](C)O)NC(=O)[C@H](CC(=O)O)NC(=O)CNC(=O)[C@H](CCCNC(=N)N)NC(=O)[C@@H]2CCCN2C1=O [Cyclic peptide 106, KKKG-(Hcy)-VPRGDTFA(Dab(acetyl))A] (H-KKKG[hCys]VPRGDTFA[Dab]A-OH; linker 5-14 via X2) |  | < 50 |  | A (The residual rate of the cyclic peptide is 70% or more.) | 
CC[C@H](C)[C@@H]1NC(=O)[C@@H](NC(=O)CNC(=O)[C@H](CCCCN)NC(=O)[C@H](CCCCN)NC(=O)[C@@H](N)CCCCN)CCCNC(=O)CSCC[C@@H](C(=O)N[C@@H](C)C(=O)O)NC(=O)[C@H](CCCNC(=N)N)NC(=O)[C@H](Cc2ccccc2)NC(=O)[C@H]([C@@H](C)O)NC(=O)[C@H](CC(=O)O)NC(=O)CNC(=O)[C@H](CCCNC(=N)N)NC(=O)[C@@H]2CCCN2C1=O [Cyclic peptide 119, KKKG(Orn(acetyl))IPRGDTFR-(Hcy)-A] (H-KKKG[Orn]IPRGDTFR[hCys]A-OH; linker 5-14 via X1) |  | < 50 |  | A (The residual rate of the cyclic peptide is 70% or more.) | 
CC(C)[C@@H]1NC(=O)[C@@H](NC(=O)[C@H](CCCCN)NC(=O)[C@H](CCCCN)NC(=O)[C@@H](N)CCCCN)CCSCC(=O)NCC[C@@H](C(=O)O)NC(=O)[C@H](Cc2ccccc2)NC(=O)[C@H](CC(N)=O)NC(=O)[C@H](CC(=O)O)NC(=O)CNC(=O)[C@H](CCCNC(=N)N)NC(=O)[C@@H]2CCCN2C1=O [Cyclic peptide 14, KKK-(Hcy)-VPRGDNF(Dab(acetyl))] (H-KKK[hCys]VPRGDNF[Dab]-OH; linker 4-12 via X2) |  |  | A (The residual rate of the cyclic peptide is 70% or more.) |  | < 50
CC[C@H](C)[C@@H]1NC(=O)[C@@H](NC(=O)[C@H](C)NC(=O)[C@H](CCCCN)NC(=O)[C@H](CCCCN)NC(=O)[C@@H](N)CCCCN)CCSCC(=O)NCC[C@@H](C(=O)N[C@@H](C)C(=O)O)NC(=O)CNC(=O)[C@H](Cc2ccccc2)NC(=O)[C@H]([C@@H](C)O)NC(=O)[C@H](CC(=O)O)NC(=O)CNC(=O)[C@H](CCCNC(=N)N)NC(=O)[C@@H]2CCCN2C1=O [Cyclic peptide 88, KKKA-(Hcy)-IPRGDTFG(Dab(acetyl))A] (H-KKKA[hCys]IPRGDTFG[Dab]A-OH; linker 5-14 via X2) | < 50 |  | A (The residual rate of the cyclic peptide is 70% or more.) |  | 
C[C@H](NC(=O)[C@H](CCCCN)NC(=O)[C@H](CCCCN)NC(=O)[C@@H](N)CCCCN)C(=O)N[C@H]1CNC(=O)CSCC[C@@H](C(=O)O)NC(=O)[C@H](CCCNC(=N)N)NC(=O)[C@H](Cc2ccc(O)cc2)NC(=O)[C@H](CC(N)=O)NC(=O)[C@H](CC(=O)O)NC(=O)CNC(=O)[C@H](CCCNC(=N)N)NC(=O)[C@@H]2CCCN2C(=O)[C@H](CCC(=O)O)NC1=O [Cyclic peptide 47, KKKA(Dap(acetyl))EPRGDNYR-(Hcy)] (H-KKKA[Dap]EPRGDNYR[hCys]-OH; linker 5-14 via X1) | 50 to 100 |  | B (The residual rate of the cyclic peptide is 50% or more and less than 70%.) |  | 

Continued, in another order:

Kd [1, 3] [nM] | Kd [1, 4] [nM] | SMILES | Performance evaluation: Stability (residual rate of cyclic peptide after alkali treatment) [2] | Stability (molecule stability, residual rate of the cyclic peptide rank) [2] | Kd [1] [nM]
< 50 |  | C[C@H](NC(=O)[C@@H]1CCNC(=O)CSCC[C@H](NC(=O)[C@H](CCCCN)NC(=O)[C@H](CCCCN)NC(=O)[C@@H](N)CCCCN)C(=O)N[C@@H](Cc2ccc(O)cc2)C(=O)N2CCC[C@H]2C(=O)N[C@@H](CCCNC(=N)N)C(=O)NCC(=O)N[C@@H](CC(=O)O)C(=O)N[C@@H](CC(N)=O)C(=O)N[C@@H](Cc2ccccc2)C(=O)N[C@@H](CCCNC(=N)N)C(=O)N1)C(=O)O [Cyclic peptide 24, KKK-(Hcy)-YPRGDNFR(Dab(acetyl))A] (H-KKK[hCys]YPRGDNFR[Dab]A-OH; linker 4-13 via X2) | A (The residual rate of the cyclic peptide is 70% or more.) |  | 
 | < 50 | CC(C)[C@@H]1NC(=O)[C@@H](NC(=O)[C@H](C)NC(=O)[C@H](CCCCN)NC(=O)[C@H](CCCCN)NC(=O)[C@@H](N)CCCCN)CCNC(=O)CSC[C@@H](C(=O)N[C@@H](C)C(=O)O)NC(=O)[C@H](C)NC(=O)[C@H](Cc2ccccc2)NC(=O)[C@H]([C@@H](C)O)NC(=O)[C@H](CC(=O)O)NC(=O)CNC(=O)[C@H](CCCNC(=N)N)NC(=O)[C@@H]2CCCN2C1=O [Cyclic peptide 142, KKKA(Dab(acetyl))VPRGDTFA(C)A] (H-KKKA[Dab]VPRGDTFACA-OH; linker 5-14 via X1) |  | C (The residual rate of the cyclic peptide is 30% or more and less than 50%.) | 
< 50 |  | CC[C@H](C)[C@@H]1NC(=O)[C@@H](NC(=O)[C@H](CCCCN)NC(=O)[C@H](CCCCN)NC(=O)[C@@H](N)CCCCN)CCSCC(=O)NCC[C@@H](C(=O)N[C@@H](C)C(=O)O)NC(=O)[C@H](C)NC(=O)[C@H](C)NC(=O)[C@H](CCCNC(=N)N)NC(=O)[C@H](Cc2ccccc2)NC(=O)[C@H](CC(N)=O)NC(=O)[C@H](CC(=O)O)NC(=O)CNC(=O)[C@H](CCCNC(=N)N)NC(=O)[C@@H]2CCCN2C1=O [Cyclic peptide 19, KKK-(Hcy)-IPRGDNFRAA(Dab(acetyl))A] (H-KKK[hCys]IPRGDNFRAA[Dab]A-OH; linker 4-15 via X2) | A (The residual rate of the cyclic peptide is 70% or more.) |  | 
50 to 100 |  | C[C@H](NC(=O)[C@@H]1CCNC(=O)CSCC[C@H](NC(=O)CNC(=O)[C@H](CCCCN)NC(=O)[C@H](CCCCN)NC(=O)[C@@H](N)CCCCN)C(=O)N2CCC[C@H]2C(=O)N[C@@H](CCCNC(=N)N)C(=O)NCC(=O)N[C@@H](CC(=O)O)C(=O)N[C@@H](CC(N)=O)C(=O)N[C@@H](Cc2ccccc2)C(=O)N[C@@H](CCCNC(=N)N)C(=O)N1)C(=O)O [Cyclic peptide 8, KKKG-(Hcy)-PRGDNFR(Dab(acetyl))A] (H-KKKG[hCys]PRGDNFR[Dab]A-OH; linker 5-13 via X2) | A (The residual rate of the cyclic peptide is 70% or more.) |  | 
 | 50 to 100 | C[C@@H]1NC(=O)[C@H](Cc2ccccc2)NC(=O)[C@H](CO)NC(=O)[C@H](CC(=O)O)NC(=O)CNC(=O)[C@H](CCCNC(=N)N)NC(=O)[C@@H]2CCCN2C(=O)[C@H]([C@@H](C)O)NC(=O)[C@@H](NC(=O)[C@H](CCCCN)NC(=O)[C@H](CCCCN)NC(=O)[C@@H](N)CCCCN)CCSCC(=O)NCC[C@@H](C(=O)O)NC1=O [Cyclic peptide 156, KKK-(Hcy)-TPRGDSFA(Dab(acetyl))] (H-KKK[hCys]TPRGDSFA[Dab]-OH; linker 4-13 via X2) |  | A (The residual rate of the cyclic peptide is 70% or more.) | 
